According to patent publication US20240366624A1, “METHODS AND COMPOSITIONS FOR TREATING THROMBOTIC DISEASE” (Washington University, priority 2023, published 2024):
Entries after “also recorded” stand apart in the source; their conditions may differ.

Experiments:
[1] = biological target: PDI (Homo sapiens, UniProt P07237); assay: PDI activity assay; format: biochemical
From the text: (§1) FIG. 17(A-F) is an exemplary embodiment of identification of novel ERO1α inhibitors by high throughput screening in accordance with the present disclosure. FIG. 17A: A scheme of an ERO1α activity assay. FIG. 17B: Screening of chemical libraries in the ERO1α activity assay. FIG. 17C: The inhibitory effect of selected compounds on ERO1α activity. FIG. 17D: The inhibitory effect of selected compounds on PDI activity. FIG. 17E: The inhibitory effect of selected compounds on H2O2 activity. FIG. 17F: The inhibitory effect of selected compounds on thiol-reacting activity. The data represent the mean±SD (n=3). *P<0.05, **P<0.01, ***P<0.001, and ****P<0.0001 vs. vehicle control, Student's t-test.
(§2) To identify a novel ERO1α inhibitor, 5800 compounds were screened using an ERO1α activity assay (FIG. 17A and FIG. 17B). […] The selected compounds were further tested in assays measuring PDI, antioxidant, and thiol-reacting activities (FIG. 17D through FIG. 17F). […] B12 inhibited P-selectin exposure and αIIbβ3 activation in agonist-activated mouse and human platelets in a concentration-dependent manner (FIG. 18B through FIG. 18E).

[2] = thiol-reacting (GSH) activity assay; format: biochemical
From the text: as §1, §2

[3] = biological target: T1, MAO-A (monoamine oxidase A) (Homo sapiens, UniProt P21397); assay: MAO-A activity assay; format: biochemical
T1 sequence (P21397 1-527): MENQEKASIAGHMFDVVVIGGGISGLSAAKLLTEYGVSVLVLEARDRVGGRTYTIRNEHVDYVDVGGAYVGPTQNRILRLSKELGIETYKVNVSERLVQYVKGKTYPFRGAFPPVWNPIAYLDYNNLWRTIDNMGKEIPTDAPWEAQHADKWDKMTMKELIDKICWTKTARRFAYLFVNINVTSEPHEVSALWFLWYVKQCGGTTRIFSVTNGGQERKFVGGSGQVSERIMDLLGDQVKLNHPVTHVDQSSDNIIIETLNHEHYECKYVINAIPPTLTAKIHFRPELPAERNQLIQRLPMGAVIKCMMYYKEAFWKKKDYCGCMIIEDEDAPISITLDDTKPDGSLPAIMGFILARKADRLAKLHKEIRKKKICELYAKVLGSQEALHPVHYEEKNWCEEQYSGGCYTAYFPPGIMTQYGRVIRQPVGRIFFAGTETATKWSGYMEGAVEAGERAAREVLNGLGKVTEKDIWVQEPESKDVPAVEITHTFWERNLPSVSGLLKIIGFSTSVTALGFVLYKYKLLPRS

[4] = tested on: mouse platelets; assay: Flow cytometry of P-selectin exposure and αIIbβ3 integrin activation, mouse platelets; format: cell-based; conditions: 3 to 10 μM, mouse platelets, thrombin or CRP
Description: FIG. 10(A-E) is an exemplary embodiment of 15E9 not affecting platelet activation and aggregation in accordance with the present disclosure. Mouse platelets were treated with 0.02-0.03 (FIG. 10A P-selectin, FIG. 10B aIIbβ3) or 0.025 U/ml thrombin (FIG. 10C) in the presence of 10 μg/ml mouse IgG2a (IgG2a) or a blocking anti-ERO1α antibody (15E9). Flow cytometry (FIG. 10(A-B)) and aggregation (FIG. 10C) assays were performed. FIG. 10D: Human platelets were treated with 0.025 U/ml thrombin in the presence of mouse IgG2a (mIgG2a) or 10 μg/ml 15E9 and 16B6, followed by measuring aggregation. […] P values determined by unpaired Student's t-test (vs. mIgG1).
FIG. 18(A-R) is an exemplary embodiment of novel small-molecule inhibitors recapitulating the defect in Ero1α (endoplasmic reticulum oxidoreductase 1a)-null platelets in accordance with the present disclosure. […] After incubation with a different concentration of B12-5, the specific interaction between B12-5 and ERO1α was measured by subtracting the nonspecific binding. The KD value was calculated from the Kon and Koff values. […] P values determined by ANOVA and Dunnett test (FIG. 18(B-E), FIG. 18(1-L), and FIG. 18(O-R) [for B12-5]) or Student t test (FIG. 18M, FIG. 18N, and FIG. 18(O-R) [for BAPTA (1,2-bis(o-aminophenoxy)ethane-N,N,N′,N′-tetraacetic acid)]). […]

Sequence of PDI (P07237 18-508, species assumed): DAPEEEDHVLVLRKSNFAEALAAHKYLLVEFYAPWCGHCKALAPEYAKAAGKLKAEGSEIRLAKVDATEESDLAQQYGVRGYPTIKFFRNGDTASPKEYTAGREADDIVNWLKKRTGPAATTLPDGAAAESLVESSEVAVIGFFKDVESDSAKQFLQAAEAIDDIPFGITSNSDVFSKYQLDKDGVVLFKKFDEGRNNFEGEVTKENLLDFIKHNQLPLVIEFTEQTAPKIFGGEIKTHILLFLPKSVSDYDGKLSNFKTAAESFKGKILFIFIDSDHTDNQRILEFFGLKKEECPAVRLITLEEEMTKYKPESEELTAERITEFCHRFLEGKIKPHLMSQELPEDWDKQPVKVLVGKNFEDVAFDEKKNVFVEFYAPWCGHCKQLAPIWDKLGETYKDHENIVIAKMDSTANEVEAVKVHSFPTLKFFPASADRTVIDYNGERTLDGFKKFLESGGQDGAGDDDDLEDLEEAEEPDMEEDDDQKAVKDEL

Q: Which “PDI inhibition at 100 μM (%)” value ([1]; 100 μM) does the source give for `O=C(CSc1nc(O)cc(O)n1)N1c2ccccc2Sc2ccccc21` [B12-5] here?
A: Its value is 8.2 ± 2%.

Q: And the “effect on PDI activity” value ([1]; at or up to 100 μM)?
A: Its value is “minimal effect; also recorded: did not affect”.

Q: What about the “GSH inhibition at 100 μM (%)” value ([2]; 100 μM) of the same compound?
A: Its value is 9.7 ± 2%.

Q: And the “effect on thiol-reacting activity” value ([2]; at or up to 100 μM)?
A: Its value is “minimal effect; also recorded: did not affect”.

Q: And the “effect on MAO-A activity” value ([3]; 10 μM)?
A: Its value is “without affecting”.

Q: And the “inhibition of MAO-A activity” value ([3]; 30 μM)?
A: Its value is 30%.

Q: And the “MAO-A inhibition at 100 μM (%)” value ([3]; 100 μM)?
A: The value was 50.7 ± 9%.

Q: What about the “P-selectin exposure and αIIbβ3 activation” value [4] of the same compound?
A: The value was “significantly reduced”.
